# Data published in publication PMC6479915, “Novel Benzene-Based Carbamates for AChE/BChE Inhibition: Synthesis and Ligand/Structure-Oriented SAR Study” (International Journal of Molecular Sciences, 2019).
# Columns and labels:
# AChE from electric eel = biological target: T1, AChE from electric eel (Electrophorus electricus, UniProt O42275); experiment: biochemical; settings: mean ± SD, n = three experiments; 25 °C, PBS pH 7.4, substrate ATCh 40 μM
# T1 construct: purchased Sigma, St. Louis, MO, USA
# T1 sequence (O42275 24-633): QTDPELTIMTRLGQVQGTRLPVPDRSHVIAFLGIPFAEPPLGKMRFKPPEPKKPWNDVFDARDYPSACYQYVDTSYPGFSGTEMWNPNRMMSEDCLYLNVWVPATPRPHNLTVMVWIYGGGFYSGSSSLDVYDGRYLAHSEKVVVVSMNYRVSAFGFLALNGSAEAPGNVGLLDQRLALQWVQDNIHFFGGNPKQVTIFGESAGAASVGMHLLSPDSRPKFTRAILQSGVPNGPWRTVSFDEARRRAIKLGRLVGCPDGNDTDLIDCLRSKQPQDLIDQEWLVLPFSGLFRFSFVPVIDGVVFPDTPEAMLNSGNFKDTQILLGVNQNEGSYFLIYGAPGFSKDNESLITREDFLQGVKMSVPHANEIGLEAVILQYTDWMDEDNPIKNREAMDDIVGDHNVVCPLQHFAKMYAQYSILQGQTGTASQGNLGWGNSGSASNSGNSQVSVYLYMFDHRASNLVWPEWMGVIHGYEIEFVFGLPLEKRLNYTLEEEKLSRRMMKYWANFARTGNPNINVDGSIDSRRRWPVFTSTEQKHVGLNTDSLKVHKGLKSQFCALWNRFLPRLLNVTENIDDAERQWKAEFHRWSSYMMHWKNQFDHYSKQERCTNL
# BChE from equine serum = biological target: T2, BChE from equine serum (Equus caballus, UniProt P81908); experiment: In vitro BChE inhibition, modified Ellman's method; type: biochemical; settings: for SI (index selectivity) = IC50 (AChE)/IC50 (BChE): higher value = higher selectivity to BChE
# T2 construct: BChE (from equine serum); purchased Sigma, St. Louis, MO, USA; host or cells: equine serum
# T2 sequence (P81908 whole entry): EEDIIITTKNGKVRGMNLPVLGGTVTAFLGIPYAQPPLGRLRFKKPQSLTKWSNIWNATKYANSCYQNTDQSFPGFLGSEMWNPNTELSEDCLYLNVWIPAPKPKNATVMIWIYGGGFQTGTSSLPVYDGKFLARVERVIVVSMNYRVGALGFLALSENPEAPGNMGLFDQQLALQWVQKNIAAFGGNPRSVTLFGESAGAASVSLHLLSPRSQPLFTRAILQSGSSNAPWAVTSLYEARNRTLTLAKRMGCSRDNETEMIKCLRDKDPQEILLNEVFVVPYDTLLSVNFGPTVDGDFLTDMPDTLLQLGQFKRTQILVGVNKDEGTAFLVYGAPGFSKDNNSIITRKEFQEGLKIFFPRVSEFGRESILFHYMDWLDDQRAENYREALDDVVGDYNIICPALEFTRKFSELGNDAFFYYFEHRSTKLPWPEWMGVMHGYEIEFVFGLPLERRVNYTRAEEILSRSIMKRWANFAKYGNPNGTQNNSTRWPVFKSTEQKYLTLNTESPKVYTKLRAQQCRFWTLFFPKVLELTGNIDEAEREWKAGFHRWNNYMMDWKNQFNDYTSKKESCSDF
SMILES,IC50 (AChE from electric eel) [µM],IC50 (BChE from equine serum) [µM],SI (index selectivity) = IC50 (AChE)/IC50 (BChE) (BChE from equine serum)
"CC(C(=O)c1ccc(Cl)c2ccccc12)N(C)C(=O)OCc1ccccc1 (stereo not drawn) [Compound 40, Benzyl (1-(4-chloronaphthalen-1-yl)-1-oxopropan-2-yl)(methyl)carbamate]",103.3 ± 0.41,42.75 ± 0.31,2.42
"CC(C(=O)c1ccc(Br)c2ccccc12)N(C)C(=O)OCc1ccccc1 (stereo not drawn) [Compound 41, Benzyl (1-(4-bromonaphthalen-1-yl)-1-oxopropan-2-yl)(methyl)carbamate]",128.3 ± 0.88,236 ± 16.3,0.54
